{"source": "patent US6299910A", "about": "“Methods for identification, purification, and manufacturing of the active constituent in Salvia-miltiorrhiza (dansheng) and the application of this product in enhancing cardiovascular functions” (Techical Sourcing International, Inc., priority 2000, dated 2001)", "key": {"animal": {"tested_on": "animal", "conditions": "Chen et al., 1980; cited from earlier work"}, "Platelet aggregation [1]": {"tested_on": "Platelet aggregation", "experiment": "Effect of Dansheng components on platelet anti-aggregation, in vitro (Table VI)", "format": "cell-based", "parameters": "key to Effect (platelet anti-aggregation): -: not effective; +: effective; ++: very effective", "conditions": "for platelet anti-aggregation potency, in words: Tables II and VI"}, "[2]": {"tested_on": "Red blood cell lysis by H2O2", "experiment": "Effect of Dansheng components on red blood cell lysis by H2O2 (Table IV)", "format": "cell-based", "parameters": "key to Effect (red blood cell lysis by H2O2): -: not effective; +: effective; ++: very effective", "conditions": "0.33 mg/ml; for inhibition at 330 µg/mL: Erythrocyte, read-out: Degree of Inhibition (red blood cell lysis by H2O2)", "method": "These compounds were prepared at 0.33 mg/ml."}, "rats [3]": {"tested_on": "rats", "experiment": "Effect of Dansheng components on rats under hypoxia condition (Table V)", "format": "in vivo", "parameters": "key to Effect (rats under hypoxia condition): -: not effective; +: effective; ++: very effective", "conditions": "100 mg/kg dose"}, "rats [4]": {"tested_on": "rats", "experiment": "Life extension / endurance under hypoxia condition (Table III)", "format": "in vivo", "conditions": "for extended rats life (up to): hypoxia, dose not given", "method": "(§1) The other seven compounds are evaluated based on: [1] Their anti-oxidant activity, [2] Anti-platelet aggregation, and [3] Endurance under hypoxia conditions.\nCompounds 6 and 8 effectively extended rats life up to 78% Other compounds are comparatively lower in this category (see Tables III and V below)."}, "Liver cell": {"tested_on": "Liver cell", "experiment": "Effect on liver cell MDA amount induced by carbon tetrachloride (antioxidant activity, liver cell protection; Table I)", "format": "cell-based", "conditions": "0.5 micro mole/ml", "source_text": "Table I: Effect of Dansheng Constituents on Liver Cell MDA (Molonyldialdehyde) Amount Induced by Carbon Tetrachloride"}, "Platelet aggregation [5]": {"tested_on": "Platelet aggregation", "experiment": "Platelet anti-aggregation effect of Magnesium Salvianolate B and its derivatives, in vitro (Table II)", "format": "cell-based", "conditions": "900 mcg/ml"}, "[6]": {"experiment": "Overall bioactivity in three categories: platelet anti-aggregation, life extension under hypoxia, anti-oxidation", "conditions": "anti-oxidation (liver cell protection)", "method": "as §1"}}, "data": [{"compound": "O=C(/C=C/c1ccc(O)c2c1[C@H](C(=O)O[C@H](Cc1ccc(O)c(O)c1)C(=O)O)[C@@H](c1ccc(O)c(O)c1)O2)O[C@H](Cc1ccc(O)c(O)c1)C(=O)O", "note": "[Salvianolic Acid B]", "values": [{"measurement": "animal endurance capacity under hypoxia conditions, in words", "setting": "animal", "value": "increase animal endurance capacity under hypoxia conditions"}]}, {"compound": "O=Cc1ccc(O)c(O)c1", "note": "[Protocatechualdehydes, Protocatechualdehyde]", "values": [{"measurement": "animal endurance capacity under hypoxia conditions, in words", "setting": "animal", "value": "increase animal endurance capacity under hypoxia conditions"}]}, {"compound": "O=C(/C=C/c1ccc(O)c2c1C(C(=O)OC(Cc1ccc(O)c(O)c1)C(=O)O)C(c1ccc(O)c(O)c1)O2)OC(Cc1ccc(O)c(O)c1)C(=O)O", "note": "(stereo not shown) [Compound 5, Dipotassium Salvianolate B]", "values": [{"measurement": "% Inhibition (platelet anti-aggregation)", "setting": "Platelet aggregation [1]; 900 mcg/ml, in vitro", "value": 44, "unit": "%"}, {"measurement": "Effect (platelet anti-aggregation)", "setting": "Platelet aggregation [1]; 900 mcg/ml, in vitro", "value": "+"}, {"measurement": "inhibition at 180 µg/mL", "setting": "Platelet aggregation [1]; Platelet, 180 mcg/ml, in vitro", "value": 0, "unit": "%"}, {"measurement": "Effect (red blood cell lysis by H2O2)", "setting": "[2]", "value": "++"}, {"measurement": "inhibition at 330 µg/mL", "setting": "[2]", "value": 100, "unit": "%"}]}, {"compound": "O=C(/C=C/c1ccc(O)c(O)c1)O[C@H](Cc1ccc(O)c(O)c1)C(=O)O", "note": "[Compound 2, Sodium Rosmarinate]", "values": [{"measurement": "Effect (rats under hypoxia condition)", "setting": "rats [3]", "value": "++"}, {"measurement": "Life Expanded", "setting": "rats [3]", "value": 42, "unit": "%"}, {"measurement": "inhibition at 180 µg/mL", "setting": "Platelet aggregation [1]; Platelet, 180 mcg/ml, in vitro", "value": 0, "unit": "%"}, {"measurement": "inhibition at 900 µg/mL", "setting": "Platelet aggregation [1]; Platelet, 900 mcg/ml, in vitro", "value": 13, "unit": "%"}, {"measurement": "Effect (red blood cell lysis by H2O2)", "setting": "[2]", "value": "++"}, {"measurement": "inhibition at 330 µg/mL", "setting": "[2]", "value": 100, "unit": "%"}]}, {"compound": "O=C(O)C(O)Cc1ccc(O)c(O)c1", "note": "(stereo not shown) [Danshensu, 3',4 phenyllatic Acid]", "values": [{"measurement": "animal endurance capacity under hypoxia conditions, in words", "setting": "animal", "value": "increase animal endurance capacity under hypoxia conditions"}]}, {"compound": "Magnesium Isosalvianolate B [Compound 8]", "values": [{"measurement": "Effect (rats under hypoxia condition)", "setting": "rats [3]", "value": "++"}, {"measurement": "Life Expanded", "setting": "rats [3]", "value": 69, "unit": "%"}, {"measurement": "% Inhibition (platelet anti-aggregation)", "setting": "Platelet aggregation [1]; 180 mcg/ml, in vitro", "value": 0, "unit": "%"}, {"measurement": "% Inhibition (platelet anti-aggregation)", "setting": "Platelet aggregation [1]; 900 mcg/ml, in vitro", "value": 20, "unit": "%"}, {"measurement": "Degree of Inhibition (red blood cell lysis by H2O2)", "setting": "[2]", "value": 100, "unit": "%"}, {"measurement": "Effect (red blood cell lysis by H2O2)", "setting": "[2]", "value": "++"}, {"measurement": "extended rats life (up to)", "setting": "rats [4]", "value": "up to 78%"}]}, {"compound": "O=C(/C=C/c1ccc(O)c2c1C(C(=O)OC(Cc1ccc(O)c(O)c1)C(=O)O)C(c1ccc(O)c(O)c1)O2)OC(Cc1ccc(O)c(O)c1)C(=O)O", "note": "(stereo not shown) [Compound 6, Magnesium Salvianolate B]", "values": [{"measurement": "Effect (rats under hypoxia condition)", "setting": "rats [3]", "value": "++"}, {"measurement": "Life Expanded", "setting": "rats [3]", "value": 65, "unit": "%"}, {"measurement": "secretion of MDA from liver cell, in words", "setting": "Liver cell", "value": "decreases the secretion of MDA from liver cell"}, {"measurement": "% Inhibition (platelet anti-aggregation)", "setting": "Platelet aggregation [1]; 180 mcg/ml, in vitro", "value": 0, "unit": "%"}, {"measurement": "% Inhibition (platelet anti-aggregation)", "setting": "Platelet aggregation [1]; 900 mcg/ml, in vitro", "value": 74, "unit": "%"}, {"measurement": "Effect (platelet anti-aggregation)", "setting": "Platelet aggregation [1]; 900 mcg/ml, in vitro", "value": "+"}, {"measurement": "inhibition at 450 µg/mL", "setting": "Platelet aggregation [1]; Platelet, 450 mcg/ml, in vitro", "value": 15, "unit": "%"}, {"measurement": "platelet anti-aggregation potency, in words", "setting": "Platelet aggregation [1]", "value": "highest potency"}, {"measurement": "platelet anti-aggregation potency, in words", "setting": "Platelet aggregation [1]; listed as MSV", "value": "most potent"}, {"measurement": "Degree of Inhibition (red blood cell lysis by H2O2)", "setting": "[2]", "value": 100, "unit": "%"}, {"measurement": "Effect (red blood cell lysis by H2O2)", "setting": "[2]", "value": "++"}, {"measurement": "inhibition at 900 µg/mL", "setting": "Platelet aggregation [5]", "value": 94, "unit": "%"}, {"measurement": "% Life Extension", "setting": "rats [4]; hypoxia condition, 200 mg/kg dose", "value": 78, "unit": "%"}, {"measurement": "extended rats life (up to)", "setting": "rats [4]", "value": "up to 78%"}, {"measurement": "bioactivity level, in words", "setting": "[6]", "value": "highest bioactivity level"}, {"measurement": "bioactivity level, in words", "setting": "[6]; listed as Magnesium Salvianolate B", "value": "most biologically effective compound"}]}, {"compound": "O=C(/C=C/c1ccc(O)c2c1C(C(=O)O)C(c1ccc(O)c(O)c1)O2)OC(Cc1ccc(O)c(O)c1)C(=O)O", "note": "(stereo not shown) [Compound 4, Magnesium Lithospermate]", "values": [{"measurement": "Effect (rats under hypoxia condition)", "setting": "rats [3]", "value": "+"}, {"measurement": "Life Expanded", "setting": "rats [3]", "value": 45, "unit": "%"}, {"measurement": "% Inhibition (platelet anti-aggregation)", "setting": "Platelet aggregation [1]; 180 mcg/ml, in vitro", "value": 0, "unit": "%"}, {"measurement": "% Inhibition (platelet anti-aggregation)", "setting": "Platelet aggregation [1]; 900 mcg/ml, in vitro", "value": 28, "unit": "%"}, {"measurement": "Degree of Inhibition (red blood cell lysis by H2O2)", "setting": "[2]", "value": 100, "unit": "%"}, {"measurement": "Effect (red blood cell lysis by H2O2)", "setting": "[2]", "value": "++"}]}, {"compound": "O=C(/C=C/c1ccc(O)c2c1C(C(=O)O)C(c1ccc(O)c(O)c1)O2)OC(Cc1ccc(O)c(O)c1)C(=O)O", "note": "(stereo not shown) [Compound 3, Dipotassium Lithospermate]", "values": [{"measurement": "Effect (rats under hypoxia condition)", "setting": "rats [3]", "value": "+"}, {"measurement": "Life Expanded", "setting": "rats [3]", "value": 23, "unit": "%"}, {"measurement": "inhibition at 180 µg/mL", "setting": "Platelet aggregation [1]; Platelet, 180 mcg/ml, in vitro", "value": 0, "unit": "%"}, {"measurement": "inhibition at 900 µg/mL", "setting": "Platelet aggregation [1]; Platelet, 900 mcg/ml, in vitro", "value": 18, "unit": "%"}, {"measurement": "Effect (red blood cell lysis by H2O2)", "setting": "[2]", "value": "++"}, {"measurement": "inhibition at 330 µg/mL", "setting": "[2]", "value": 100, "unit": "%"}]}, {"compound": "O=C(O)C(O)Cc1ccc(O)c(O)c1", "note": "(stereo not shown) [Compound 1, Potassium 3' 4-dihydroxyphenyllactate]", "values": [{"measurement": "inhibition at 180 µg/mL", "setting": "Platelet aggregation [1]; Platelet, 180 mcg/ml, in vitro", "value": 0, "unit": "%"}, {"measurement": "inhibition at 900 µg/mL", "setting": "Platelet aggregation [1]; Platelet, 900 mcg/ml, in vitro", "value": 0, "unit": "%"}, {"measurement": "Effect (red blood cell lysis by H2O2)", "setting": "[2]", "value": "++"}, {"measurement": "inhibition at 330 µg/mL", "setting": "[2]", "value": 100, "unit": "%"}, {"measurement": "bioactivity level, in words", "setting": "[6]", "value": "lowest bio-activity level"}]}, {"compound": "O=C(/C=C/c1ccc(O)c(O)c1/C=C/c1ccc(O)c(O)c1)OC(Cc1ccc(O)c(O)c1)C(=O)O", "note": "(stereo not shown) [Salvianolic Acid A]", "values": [{"measurement": "animal endurance capacity under hypoxia conditions, in words", "setting": "animal", "value": "increase animal endurance capacity under hypoxia conditions"}]}]}
